Assay results: patent US11219607B2, “Methods for suppressing cancer-related cachexia” (Ohio State Innovation Foundation, priority 2013, dated 2022)

Key:
Assay type in all cases: in vivo, CD2F1 mice
[1] = test system: TNF; assay: Serum cytokine profiling, C-26 model: TNF; settings: C-26 tumor-bearing mice
Text: (§1) Gastrocnemius muscles and sera were collected at day 17 post-cell injection from each treatment group (n=8/group). Muscle was submitted to Metabolon, Inc. (Durham, N.C.) for metabolomic analysis of 270 metabolic intermediates via proprietary mass spectrometry platforms. Serum was submitted to Eve Technologies (Alberta, Canada) for analysis of 32 cytokines using a mouse cytokine array (32-plex panel).
To shed light onto the mechanism by which AR-42 mediated its anti-cachectic effect, sera and gastrocnemius muscle from vehicle- or AR-42-treated tumor-free and C-26 tumor-bearing mice were used for cytokine profiling analysis and whole transcriptome shotgun sequencing (RNA-seq), respectively.

[2] = test system: gastrocnemius muscles of C-26 tumor-bearing mice; assay: Metabolomic profiling of gastrocnemius muscle, C-26 model; settings: day 17, C-26 tumor-bearing mice
Text: as §1
With cachexia, skeletal muscles undergo complex metabolic changes in response to tumor/host-derived inflammatory and neuroendocrine stressors (1). Accordingly, we conducted metabolic profiling analysis to investigate the effect of AR-42 on cachexia-induced shifts in metabolic phenotype in skeletal muscle. Tumor-free and C-26 tumor-bearing mice were treated with vehicle or AR-42 as aforementioned, and gastrocnemius muscles were collected at day 17 for metabolomic analysis.

[3] = test system: C-26 tumor-bearing mice; assay: Survival and body weight comparison of HDAC inhibitors, C-26 model; settings: day 21, 50 mg/kg every other day orally from day 6
Experimental: (§2) In one aspect, tumors were established by subcutaneous injection of C-26 cells (0.5×10^6 cells in 0.1 ml) into the right flank of male CD2F1 mice (approximately 6 weeks of age; Harlan Laboratories, Indianapolis, Ind.)(11). Tumor-bearing mice, as well as tumor-free mice serving as non-cachectic controls, were randomized into groups that were treated with either AR-42 (50 mg/kg, p.o. by gavage, every other day; Arno Therapeutics, Inc., Flemington, N.J.) or vehicle (0.5% methylcellulose (w/v) and 0.1% Tween-80 (v/v) in sterile water) starting 6 days after cell injection. To investigate the effect of delayed treatment, treatments with drug and/or vehicle were started 6, 10 and 12 days after cancer cell injection.
In another aspect, the effects of AR-42 were compared to other HDAC inhibitors. […]
The effects of AR-42 were compared to other HDAC inhibitors (i.e., vorinostat and romidepsin) in C-26 tumor-bearing mice. Starting on day 6 after tumor cell injection, mice were treated continuously with AR-42 (50 mg/kg every other day, orally), vorinostat [50 mg/kg once daily, orally (13)], romidepsin [0.6 mg/kg twice weekly, i.p. (14)], or vehicle, until weight loss, as determined by daily body weight measurements and subtraction of tumor mass, reached 20% of starting weight. […]

[4] = test system: C-26 tumor-bearing mice; assay: Forelimb grip strength measurement, C-26 delayed treatment; settings: all drug-treated groups (start day 6, 10, 12); day 15 and 16
Experimental: Forelimb grip strength was measured mice using a Digital Grip Strength Meter (Columbus Instruments, Columbus, Ohio). Five measurements were taken from each mouse, the average of which was designated as the mouse's grip strength.
To measure forelimb grip strength, each mouse was held by the base of its tail and lowered over the apparatus until its forepaws grasped the pull bar. The mouse was then gently pulled horizontally in a straight line away from the grip meter until the mouse released the bar, and the maximum force attained was recorded. Five measurements were taken from each mouse, the average of which was designated as the mouse's grip strength.

[5] = test system: C-26 tumor-bearing mice; assay: C-26 colon adenocarcinoma model of cancer cachexia (body, muscle and tissue weights, tumor growth, food intake)
Experimental: as §2
In another aspect, subcutaneous tumors were established in male C57BL/6 mice (approximately 6 weeks of age; Harlan) by injection of 0.5×10^6 LLC cells into the right flank. Treatment with AR-42 and vehicle was performed as for the C-26 model beginning 6 days after cell injection. In both models, body weights and food consumption were monitored daily and tumor size was measured no less than every two days. Mice were fasted for 2 hours prior to sacrifice, at which time, hind limb muscles, heart, spleen, epididymal fat, and blood were collected and the weights of the solid tissues were measured. Muscle samples were frozen in liquid nitrogen-chilled 2-methylbutane and then stored at −80° C. until analysis.
In one aspect, mice were treated orally by gavage with AR-42 (50 mg/kg) or vehicle every other day starting 6 days after injection C-26 cells, when palpable tumors had formed. […] By the study endpoint (day 15), the magnitude of the weight loss, after deducting the mass of the tumors (1 cm^3 volume=1 gram mass), reached >20% for the vehicle-treated group, and 6% for AR-42-treated mice (center). […] The AR-42-treated mice, despite their large tumor burden, were alert, responsive, active, and lacked the hunched posture and rough haircoat observed in vehicle-treated counterparts by the end point of this study (FIG. 1B).
CD2F1 and C57BL/6 mice were group-housed under conditions of constant photoperiod (12-hour light/12-hour dark), temperature and humidity with ad libitum access to water and standard diet. Mice were briefly anesthetized (isoflurane, 3-4%) during administration of drugs (AR-42, vorinostat, vehicle) by oral gavage. Food consumption was estimated by weighing food in each cage daily and dividing the daily decrease in food by the number of mice in the cage. Tumor volumes were calculated from caliper measurements using a standard formula (length×width^2×π/6).

`CC(C)[C@H](C(=O)Nc1ccc(C(=O)NO)cc1)c1ccccc1` [AR-42, (S)—N-hydroxy-4-(3-methyl-2-phenylbutanamido)benzamide] was tested, and the “effect on serum TNF levels” value [1] was “no effect”, the “cachectic phenotype of free amino acids and amino acid metabolites” value [2] was “reversed” and the “glycogen metabolic intermediates (short-chain malto-oligosaccharides, glucose 1-phosphate)” value [2] was “significantly replenished”. For the same compound, the “intramuscular levels of glucose and key glycolytic intermediates” value ([2]; lowered in cachectic muscle) was “reversed these metabolic changes”, the “2-hydroxybutyrate and ophthalmate levels in muscle” value ([2]; to levels comparable to tumor-free mice) was “dramatically reduced” and the “cumulative survival (weight loss below 20% of starting weight)” value [3] was 100%. For the same compound, the “forelimb muscle strength (handgrip dynamometry) relative to vehicle-treated control” value [4] was “helped preserve forelimb muscle strength”, the “enlarged spleens (splenomegaly) in tumor-bearing mice” value [5] was “not improved” and the “loss of cardiac tissue mass in tumor-bearing mice” value [5] was “ameliorated”. For the same compound, the “tumor growth relative to vehicle” value ([5]; 50 mg/kg p.o. every other day from day 6, 15-day study) was “did not alter tumor growth”, the “magnitude of the weight loss after deducting the mass of the tumors” value ([5]; 50 mg/kg p.o. every other day from day 6, study endpoint day 15, vehicle group >20%) was 6% and the “reduction of tibialis anterior weight relative to tumor-free control mice” value ([5]; day 15, tumor-bearing/vehicle 10.5%) was 0.8%. For the same compound, the “reduction of quadriceps weight relative to tumor-free control mice” value ([5]; day 15, tumor-bearing/vehicle 18.1%) was 5.8%, the “reduction of gastrocnemius weight relative to tumor-free control mice” value ([5]; day 15, tumor-bearing/vehicle 20.6%) was 9.6% and the “loss of adipose tissue mass in tumor-bearing mice” value ([5]; restored to a level comparable to tumor-free/AR-42 mice) was “restored the loss of adipose tissue mass”.
